How the values were obtained:
[1] = tested on: MV 411 cells; experiment: Cell Viability Assay (CellTiter-Glo); assay type: cell-based; conditions: Homo sapiens, MV4-11, 72 hours, read-out: IC50 (anti-proliferative activity against leukemia cells)
Protocol: Cell lines and maintenance: All cell lines (MV 411) used for in vitro and in vivo studies were supplied as part of Wuxi AppTech cell bank. Cell lines were maintained in a medium supplemented with 10% heat inactivated fetal bovine serum at 37° C., in an atmosphere of 5% CO2, in air. The tumor cells were routinely subcultured twice weekly. The cells growing in an exponential growth phase were used for the in vitro cell potency and in vivo efficacy studies.
EXAMPLE 1: Cell Viability Assay: For cell cytotoxicity assays, 2000 cells/well were plated in 384-well plates. Twenty four hours after plating, cells were treated with inhibitors at the indicated compound concentrations. On Day 3 (72 hours), cells were lysed with CellTiter-Glo® Luminescent Cell Viability Assay reagent (Promega) and luminescence was read using the EnVision Multi-plate reader. To calculate IC50, a dose-response curve is generated using a nonlinear regression model with a sigmoidal dose response. The formula of surviving rate is shown below. IC50 values were automatically generated by GraphPad Prism 8.0. See FIG. 1A and FIG. 1B and Tables 3 and 4.

[2] = target: T1, BRD2-BD1 (Homo sapiens, UniProt P25440); experiment: Selectivity panel (Table 3); assay type: binding
T1 construct: BRD2-BD1
T1 sequence (P25440 74-180 limits assumed): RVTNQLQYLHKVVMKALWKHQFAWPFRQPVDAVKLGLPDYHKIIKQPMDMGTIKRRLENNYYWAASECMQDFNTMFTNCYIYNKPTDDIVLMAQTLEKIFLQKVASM

[3] = target: T2, BRD2-BD2 (Homo sapiens, UniProt P25440); experiment: Selectivity panel (Table 3); assay type: binding
T2 construct: BRD2-BD2

[4] = target: T3, BRD3-BD1 (Homo sapiens, UniProt Q15059); experiment: Selectivity panel (Table 3); assay type: binding
T3 construct: BRD3-BD1
T3 sequence (Q15059 34-140 limits assumed): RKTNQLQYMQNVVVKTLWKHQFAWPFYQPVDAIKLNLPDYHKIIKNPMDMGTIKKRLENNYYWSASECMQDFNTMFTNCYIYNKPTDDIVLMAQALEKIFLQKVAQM

[5] = target: CD39 (Homo sapiens, UniProt P49961); experiment: Selectivity panel (Table 3); assay type: biochemical
[6] = target: GLS1 (Homo sapiens, UniProt O94925); experiment: Selectivity panel (Table 3); assay type: biochemical
Chain of GLS1 (O94925 73-669 limits assumed, species assumed): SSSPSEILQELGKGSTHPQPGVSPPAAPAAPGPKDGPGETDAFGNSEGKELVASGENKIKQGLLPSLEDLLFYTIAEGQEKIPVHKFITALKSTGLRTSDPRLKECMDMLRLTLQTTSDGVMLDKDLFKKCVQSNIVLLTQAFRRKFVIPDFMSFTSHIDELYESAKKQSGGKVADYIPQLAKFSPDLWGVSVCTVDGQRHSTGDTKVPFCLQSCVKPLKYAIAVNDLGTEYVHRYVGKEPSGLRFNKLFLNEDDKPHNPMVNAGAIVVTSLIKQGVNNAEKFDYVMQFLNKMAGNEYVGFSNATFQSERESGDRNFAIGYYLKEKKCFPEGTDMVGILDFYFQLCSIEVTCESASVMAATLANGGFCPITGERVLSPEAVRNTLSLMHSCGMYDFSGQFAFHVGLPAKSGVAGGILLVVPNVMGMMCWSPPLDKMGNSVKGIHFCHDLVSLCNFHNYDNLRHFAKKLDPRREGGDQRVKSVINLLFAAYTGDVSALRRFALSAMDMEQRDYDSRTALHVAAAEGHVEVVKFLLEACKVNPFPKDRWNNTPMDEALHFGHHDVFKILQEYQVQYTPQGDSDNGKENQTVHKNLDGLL

[7] = target: HDAC6 (Homo sapiens, UniProt Q9UBN7); experiment: Selectivity panel (Table 3); assay type: biochemical
Chain of HDAC6 (Q9UBN7 whole entry, species assumed): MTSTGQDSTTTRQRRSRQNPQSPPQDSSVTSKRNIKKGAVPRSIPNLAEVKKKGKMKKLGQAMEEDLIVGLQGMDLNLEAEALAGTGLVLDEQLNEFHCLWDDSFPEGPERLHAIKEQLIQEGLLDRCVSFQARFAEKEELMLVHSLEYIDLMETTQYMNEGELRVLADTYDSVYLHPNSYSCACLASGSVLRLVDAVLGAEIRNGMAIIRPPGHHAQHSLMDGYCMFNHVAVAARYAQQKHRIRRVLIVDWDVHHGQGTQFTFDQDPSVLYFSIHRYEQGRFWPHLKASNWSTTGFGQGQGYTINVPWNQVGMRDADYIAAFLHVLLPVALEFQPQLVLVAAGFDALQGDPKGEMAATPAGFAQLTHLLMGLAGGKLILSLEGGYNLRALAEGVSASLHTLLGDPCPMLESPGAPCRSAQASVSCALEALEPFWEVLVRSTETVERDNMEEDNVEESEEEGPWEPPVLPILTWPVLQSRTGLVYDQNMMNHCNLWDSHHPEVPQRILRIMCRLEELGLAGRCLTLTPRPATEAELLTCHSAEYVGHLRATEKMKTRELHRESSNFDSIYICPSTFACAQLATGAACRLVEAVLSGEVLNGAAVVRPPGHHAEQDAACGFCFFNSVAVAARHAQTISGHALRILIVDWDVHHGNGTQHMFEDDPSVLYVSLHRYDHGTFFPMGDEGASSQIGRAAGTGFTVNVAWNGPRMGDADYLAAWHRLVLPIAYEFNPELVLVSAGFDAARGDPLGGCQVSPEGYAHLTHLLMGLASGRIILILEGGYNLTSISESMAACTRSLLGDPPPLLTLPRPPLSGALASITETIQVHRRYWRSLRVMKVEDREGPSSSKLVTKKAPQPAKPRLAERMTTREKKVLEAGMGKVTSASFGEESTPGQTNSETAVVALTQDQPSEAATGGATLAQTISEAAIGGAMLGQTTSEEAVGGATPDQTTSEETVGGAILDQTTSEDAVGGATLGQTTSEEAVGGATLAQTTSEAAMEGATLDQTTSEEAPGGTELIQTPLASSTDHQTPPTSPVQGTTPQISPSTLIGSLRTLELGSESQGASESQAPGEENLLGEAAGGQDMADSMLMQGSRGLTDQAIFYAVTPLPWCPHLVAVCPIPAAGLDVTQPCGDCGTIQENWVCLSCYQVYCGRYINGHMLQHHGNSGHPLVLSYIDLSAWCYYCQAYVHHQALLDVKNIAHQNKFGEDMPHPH

[8] = target: KRAS G12V (Homo sapiens, UniProt P01116, G12V); experiment: Selectivity panel (Table 3); assay type: binding
Chain of KRAS G12V (P01116 1-188 isoform P01116-2 G12V): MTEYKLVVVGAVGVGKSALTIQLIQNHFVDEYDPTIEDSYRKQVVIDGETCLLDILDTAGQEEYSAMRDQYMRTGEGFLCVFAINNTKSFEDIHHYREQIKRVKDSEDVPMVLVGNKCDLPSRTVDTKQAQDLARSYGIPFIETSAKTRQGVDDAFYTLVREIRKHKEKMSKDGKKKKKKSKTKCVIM

[9] = target: POLQPolymerase (Homo sapiens, UniProt O75417); experiment: Selectivity panel (Table 3); assay type: biochemical
[10] = target: SHP2 D61G (Homo sapiens, UniProt Q06124, D61G); experiment: Selectivity panel (Table 3); assay type: biochemical
[11] = target: SHP2 E76K (Homo sapiens, UniProt Q06124, E76K); experiment: Selectivity panel (Table 3); assay type: biochemical
Chain of SHP2 E76K (Q06124 whole entry E76K): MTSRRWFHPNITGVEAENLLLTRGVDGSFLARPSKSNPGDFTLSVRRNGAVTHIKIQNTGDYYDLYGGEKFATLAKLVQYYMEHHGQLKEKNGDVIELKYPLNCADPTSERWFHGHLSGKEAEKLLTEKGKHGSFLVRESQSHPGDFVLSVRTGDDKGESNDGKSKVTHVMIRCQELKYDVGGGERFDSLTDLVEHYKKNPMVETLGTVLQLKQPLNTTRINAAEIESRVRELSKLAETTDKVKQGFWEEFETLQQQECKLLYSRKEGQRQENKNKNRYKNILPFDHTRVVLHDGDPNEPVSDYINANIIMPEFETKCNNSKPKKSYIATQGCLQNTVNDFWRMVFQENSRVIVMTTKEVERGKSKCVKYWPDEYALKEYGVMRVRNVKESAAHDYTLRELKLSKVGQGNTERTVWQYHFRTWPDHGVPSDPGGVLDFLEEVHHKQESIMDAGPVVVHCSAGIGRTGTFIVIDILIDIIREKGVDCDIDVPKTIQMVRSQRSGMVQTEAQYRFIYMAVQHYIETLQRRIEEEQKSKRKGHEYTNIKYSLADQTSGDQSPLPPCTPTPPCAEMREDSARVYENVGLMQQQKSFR

[12] = target: SHP2 WT (Homo sapiens, UniProt Q06124); experiment: Selectivity panel (Table 3); assay type: biochemical
Chain of SHP2 WT (Q06124 whole entry): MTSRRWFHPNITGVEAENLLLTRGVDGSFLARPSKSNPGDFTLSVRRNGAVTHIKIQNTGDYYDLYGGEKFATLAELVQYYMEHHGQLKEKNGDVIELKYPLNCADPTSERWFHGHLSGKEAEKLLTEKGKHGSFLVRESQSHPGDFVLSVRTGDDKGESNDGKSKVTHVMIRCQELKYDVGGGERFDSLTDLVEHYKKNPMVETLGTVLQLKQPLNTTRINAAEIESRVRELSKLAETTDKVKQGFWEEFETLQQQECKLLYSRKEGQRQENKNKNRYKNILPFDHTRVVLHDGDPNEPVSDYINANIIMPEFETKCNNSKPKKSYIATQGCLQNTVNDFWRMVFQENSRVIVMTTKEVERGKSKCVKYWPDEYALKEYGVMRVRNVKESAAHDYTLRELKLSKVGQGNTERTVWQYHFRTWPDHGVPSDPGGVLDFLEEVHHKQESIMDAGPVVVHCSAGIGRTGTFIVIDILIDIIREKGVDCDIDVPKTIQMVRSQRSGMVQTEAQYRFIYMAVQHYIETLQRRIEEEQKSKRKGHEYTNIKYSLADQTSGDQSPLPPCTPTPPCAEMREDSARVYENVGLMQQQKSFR

[13] = target: TCPTP (Homo sapiens, UniProt P17706); experiment: Selectivity panel (Table 3); assay type: biochemical
[14] = target: TEAD2 (Homo sapiens, UniProt Q15562); experiment: Selectivity panel (Table 3); assay type: binding
[15] = target: TEAD4 (Homo sapiens, UniProt Q15561); experiment: Selectivity panel (Table 3); assay type: binding
Chain of TEAD4 (Q15561 whole entry, species assumed): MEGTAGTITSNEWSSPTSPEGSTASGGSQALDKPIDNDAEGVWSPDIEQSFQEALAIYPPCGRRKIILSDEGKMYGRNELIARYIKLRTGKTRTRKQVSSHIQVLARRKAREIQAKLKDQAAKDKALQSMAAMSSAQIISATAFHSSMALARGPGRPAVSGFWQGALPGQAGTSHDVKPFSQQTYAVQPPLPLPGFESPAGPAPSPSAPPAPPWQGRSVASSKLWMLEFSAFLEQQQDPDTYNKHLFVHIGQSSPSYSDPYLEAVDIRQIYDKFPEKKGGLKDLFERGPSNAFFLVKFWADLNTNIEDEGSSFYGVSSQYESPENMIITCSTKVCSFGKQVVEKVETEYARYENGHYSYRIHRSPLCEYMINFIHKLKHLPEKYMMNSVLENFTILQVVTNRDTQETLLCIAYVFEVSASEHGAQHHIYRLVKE

[16] = Mouse PK (oral); assay type: in vivo, C57/B16 mice; conditions: for Cmax: plasma; for AUC(0-t) / half-life: C57/B16, plasma
Protocol: Mouse PK: Animals were dosed with a single intravenous bolus or oral gavage administration in naïve C57/B16 mice (Beijing Vital River Laboratory Animal Co., LTD). Blood samples were collected at the respective sampling time points. The quantification of compound concentrations in mouse or rat plasma was quantified using LC-MS/MS method. Plasma concentration versus time data was analyzed by non-compartmental mode approaches using the WinNonlin software program (version 6.3 or above, Pharsight). Pharmacokinetic parameters, including C0 (initial concentration after drug administration), […], Vdss (volume of distribution), Cmax (maximum peak concentration of the drug), Tmax (time required to reach Cmax) T1/2 (time required for drug concentration to decrease by 50% after administration), AUC0-last (area under the concentration-time curve from dosing time t=0 to the time of the last measured concentration), AUC0-inf (total drug exposure across time), MRT0-last (mean residence time from dosing time t=0 to the time of the last measured concentration), MRT0-inf f (mean residence time of total drug exposure), bioavailability (%) (the percentage (or the fraction F) of an administered drug dose that reaches the systemic circulation) for IV and PO groups were calculated. See Table 7 and FIGS. 6A, 6B, 6C and 6D.

[17] = Liver S9 stability assay; assay type: in vitro ADME, mouse
Protocol: Liver S9 stability assay: Test compounds (1 μM) and positive control were incubated with 5 mM GSH and liver S9 (1 mg protein/ml) from multiple species (including human, monkey, dog, rat and mouse) at 37° C. at 0, 10, 30, and 60 minutes in duplicate. After adding the stop solution, 100 μL of supernatant were analyzed by LC-MS/MS. The % remaining of test compound, T1/2 (min), and CLint (μL/min/mg) were calculated and were reported.

[18] = Metabolite ID in Liver S9; assay type: in vitro ADME; conditions: HBI-2375 and metabolites in Monkey liver S9
[19] = Metabolite ID in Liver S9; assay type: in vitro ADME; conditions: HBI-2375 and metabolites in Human liver S9
[20] = Metabolite ID in plasma; assay type: in vitro ADME; conditions: HBI-2375 and metabolites in Rat plasma
[21] = Metabolite ID in plasma; assay type: in vitro ADME; conditions: HBI-2375 and metabolites in Monkey plasma
[22] = target: hERG (Homo sapiens, UniProt Q12809); experiment: hERG IC50; assay type: cell-based
Chain of hERG (Q12809 whole entry): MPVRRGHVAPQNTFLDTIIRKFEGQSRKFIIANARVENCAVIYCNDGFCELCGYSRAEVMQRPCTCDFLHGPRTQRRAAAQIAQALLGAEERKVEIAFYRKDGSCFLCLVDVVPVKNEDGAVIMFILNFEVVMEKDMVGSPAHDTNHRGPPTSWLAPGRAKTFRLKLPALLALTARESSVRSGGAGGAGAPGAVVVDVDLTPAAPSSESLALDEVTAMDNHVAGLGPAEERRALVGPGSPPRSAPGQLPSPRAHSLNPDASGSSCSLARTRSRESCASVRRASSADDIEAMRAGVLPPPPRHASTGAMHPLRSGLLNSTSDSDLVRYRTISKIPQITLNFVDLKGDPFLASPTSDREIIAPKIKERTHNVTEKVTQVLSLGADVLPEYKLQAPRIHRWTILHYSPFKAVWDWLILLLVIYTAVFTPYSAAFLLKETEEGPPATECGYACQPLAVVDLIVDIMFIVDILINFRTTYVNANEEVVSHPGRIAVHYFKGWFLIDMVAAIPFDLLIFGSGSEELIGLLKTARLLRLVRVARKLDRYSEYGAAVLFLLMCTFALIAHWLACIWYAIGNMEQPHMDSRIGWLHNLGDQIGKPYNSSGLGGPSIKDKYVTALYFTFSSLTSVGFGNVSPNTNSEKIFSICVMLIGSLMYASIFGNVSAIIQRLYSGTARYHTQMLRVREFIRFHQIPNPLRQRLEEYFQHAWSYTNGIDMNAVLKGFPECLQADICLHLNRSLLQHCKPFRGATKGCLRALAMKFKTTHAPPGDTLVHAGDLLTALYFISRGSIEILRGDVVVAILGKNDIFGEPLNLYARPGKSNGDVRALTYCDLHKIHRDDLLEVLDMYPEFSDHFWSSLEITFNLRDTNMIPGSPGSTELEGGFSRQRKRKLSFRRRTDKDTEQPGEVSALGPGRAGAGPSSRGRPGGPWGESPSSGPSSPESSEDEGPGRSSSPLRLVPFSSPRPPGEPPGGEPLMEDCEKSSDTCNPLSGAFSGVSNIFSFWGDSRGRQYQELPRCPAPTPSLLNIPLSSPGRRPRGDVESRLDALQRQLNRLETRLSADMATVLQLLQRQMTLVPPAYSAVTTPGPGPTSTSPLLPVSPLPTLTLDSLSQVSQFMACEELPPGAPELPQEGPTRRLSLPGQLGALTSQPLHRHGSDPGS

[23] = in vitro; conditions: human, plasma
[24] = in vitro; conditions: rat, plasma

Question: Which IC50 [1] does the source give for `Cc1c(F)c(N)cc(C(=O)Nc2cc(-n3cc(C(=O)N4CCN(C)CC4)nn3)c(F)cc2N2C[C@@H](C)N(C)[C@@H](C)C2)c1Cl` [HYBI-084, 5-amino-2-chloro-4-fluoro-N-(4-fluoro-5-(4-(4-methylpiperazine-1-carbonyl)-1H-1,2,3-triazol-1-yl)-2-((3S,5R)-3,4,5-trimethylpiperazin-1-yl)phenyl)-3-methylbenzamide] here?
Answer: 3170 nM

Question: What about the IC50 [2] of the same compound?
Answer: > 1000 nM

Question: And the IC50 [3]?
Answer: > 1000 nM

Question: And the IC50 [4]?
Answer: > 1000 nM

Question: And the IC50 [5]?
Answer: > 1000 nM

Question: And the IC50 [6]?
Answer: > 1000 nM

Question: And the IC50 [7]?
Answer: > 1000 nM

Question: What about the IC50 [8] of the same compound?
Answer: > 1000 nM

Question: And the IC50 [9]?
Answer: > 1000 nM

Question: What about the IC50 [10] of the same compound?
Answer: > 1000 nM

Question: And the IC50 [11]?
Answer: > 1000 nM

Question: What about the IC50 [12] of the same compound?
Answer: > 1000 nM

Question: And the IC50 [13]?
Answer: > 1000 nM

Question: And the IC50 [14]?
Answer: > 1000 nM

Question: And the IC50 [15]?
Answer: > 1000 nM

Question: What about the F ([16]; 10 mpk) of the same compound?
Answer: 26.3%

Question: And the F ([16]; 30 mpk)?
Answer: 37.7%

Question: And the Cmax ([16]; C57/B16, 10 mg/kg, 10 mpk)?
Answer: 359 nM

Question: And the Cmax ([16]; C57/B16, 30 mg/kg, 30 mpk)?
Answer: 1280 nM

Question: What about the AUC(0-t) ([16]; 10 mg/kg, 10 mpk) of the same compound?
Answer: 1.31 µM·h

Question: What about the half-life ([16]; 10 mg/kg, 10 mpk) of the same compound?
Answer: 3.1 h

Question: What about the AUC(0-t) ([16]; 30 mg/kg, 30 mpk) of the same compound?
Answer: 5.64 µM·h

Question: And the half-life ([16]; 30 mg/kg, 30 mpk)?
Answer: 3.5 h

Question: And the half-life at 1 μM ([17]; Mouse liver S9)?
Answer: > 2.42 h

Question: What about the microsomal CLint at 1 μM ([17]; Mouse liver S9) of the same compound?
Answer: < 4.8 µL/min/mg

Question: What about the “% Remaining after 60 min incubation” value ([17]; Mouse liver S9, 1 μM, 5 mM GSH, 37° C.) of the same compound?
Answer: 110%

Question: And the “Relative Abundance (UV Peak Area % Total)” value [18]?
Answer: 34.68%

Question: And the “Relative Abundance (UV Peak Area % Total)” value [19]?
Answer: 78.70%

Question: And the “Relative Abundance (UV Peak Area % Total)” value [20]?
Answer: 93.47%

Question: And the “Relative Abundance (UV Peak Area % Total)” value [21]?
Answer: 97.58%

Question: And the IC50 [22]?
Answer: 22200 nM

Question: And the fraction unbound [23]?
Answer: < 0.07

Question: And the fraction unbound [24]?
Answer: < 0.07

Source: patent publication US20230293539A1, “MLL1-WDR5 PROTEIN-PROTEIN INTERACTION INHIBITOR COMPOUNDS AND USES THEREOF” (HUYABIO International, LLC, priority 2022, published 2023)
